Results on 12 compounds are retold here after PubChem BioAssay (NCI).

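Where inhibition never reached the appropriate level, the endpoint shown equals the highest concentration tested. Otherwise, values were interpolated linearly from a five-concentration, 48-hour dose response in 96-well plates. TGI: total growth inhibition.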

What all share (experiment): NCI-60 cell line screen, 48 h
For assay [1], the system named is SF-539 CNS.
Assay [2] concerns MALME-3M melanoma.
For assay [3], the system named is SNB-19 CNS.
In assay [4] the test system is SW-620 colon.
For assay [5], the system named is HOP-62 NSCLC.
In assay [6] the test system is PC-3 prostate.
In assay [7] the test system is OVCAR-5 ovarian.
Assay [8] deals with SF-295 CNS.
For assay [9], the system named is HL-60(TB) leukemia.
Assay [10] relates to MDA-MB-231 breast.
The subject of assay [11] is OVCAR-3 ovarian.
Assay [12] deals with EKVX NSCLC.
Assay [13] deals with SK-OV-3 ovarian.
Assay [14] concerns LOX IMVI melanoma.
The subject of assay [15] is COLO 205 colon.
Assay [16] relates to DU-145 prostate.
The subject of assay [17] is SR leukemia.
The test system of assay [18] is SN12C renal.
In assay [19] the test system is SK-MEL-28 melanoma.
For assay [20], the system named is SNB-75 CNS.

For `O=c1[nH]c(C23CC4CC(CC(C4)C2)C3)cc2c1c(=O)oc1ccccc12`, the TGI in [1] is 17.4 µM; in [2] it was 13.7 µM; in assay [3], 17.7 µM; in [4] it was more than 51.8 µM; in assay [5] it was 9.56 µM; in [6], 10.5 µM. Moreover, the TGI is 22.8 µM in assay [7]; 12.9 µM in assay [8]; more than 100 µM in assay [9]; 10.8 µM in assay [10]; 17.5 µM in assay [11]; 3.99 µM in [12]. Also, the TGI in assay [13] was determined as 11 µM; in assay [14], 11.6 µM; in [15], 46.9 µM; in assay [16], 22 µM; in [17], 9.31 µM; in [18] it was 38.5 µM. Moreover, the TGI came out at 20.6 µM in assay [19] and 9.52 µM in assay [20].
`COc1ccc2nc3c([N+](=O)[O-])ccc4c3c(c2c1)N=CN4CCCN(C)C`: the TGI was 13 µM in assay [1]; 28.2 µM in [2]; 22.2 µM in [3]; more than 44.3 µM in assay [4]; 15.1 µM in [5]; 13 µM in assay [6]. Also, the TGI was found to be 25.5 µM in [7]; 18.2 µM in assay [8]; 6.27 µM in assay [9]; 8.27 µM in [10]; 20.2 µM in assay [11]; 16.2 µM in assay [12]. Also, the TGI in assay [13] amounted to 25.3 µM; in assay [14], 8.78 µM; in assay [15], 5.77 µM; in assay [16], 13.9 µM; in assay [17], 1.03 µM; in [18], 11.5 µM. The TGI in assay [19] amounted to 31.5 µM; in assay [20], 11.1 µM.
Take `CCOC(=O)C1=CN/C(=C(/C)C(=O)OC)SC1C(=O)OCC` (stereo not given): the TGI in assay [1], in [2], in [3], in assay [4], in [5] and in [6] was more than 100 µM in each case. Moreover, the TGI in assay [7], in [8], in assay [9], in assay [10], in [11] and in assay [12] was more than 100 µM throughout. Moreover, the TGI in [13], in assay [14], in assay [15], in assay [16], in assay [17] and in [18] was more than 100 µM each time. Further, the TGI in assay [19] and in assay [20] was more than 100 µM throughout.
For the compound `COc1ccc2cc(CNCCCCCCCCCCCCNCc3ccc4cc(OC)ccc4c3)ccc2c1`, the TGI in assay [1] is 31.8 µM; in assay [2], 31.8 µM; in [3] it was 31.3 µM; in assay [4], more than 51.9 µM; in assay [5], 39.2 µM; in [6] it was more than 55.4 µM. Moreover, the TGI is more than 57.1 µM in [7]; 42.2 µM in [8]; 34.9 µM in assay [9]; more than 51.5 µM in [10]; 37.1 µM in [11]; 37.6 µM in [12]. The TGI in [13] was 32.7 µM; in [14], 28.2 µM; in [15], more than 55.9 µM; in [16] it was more than 56.1 µM; in assay [17], more than 21.5 µM; in assay [18], 46.9 µM. The TGI was more than 56 µM in assay [19] and 28.7 µM in assay [20].
`COC(=O)c1c(O)ccc2c1c1c(n2Cc2ccccc2)C(=O)c2ccccc2C1=O`: the TGI in assay [1] was 29.1 µM; in assay [2], 54.7 µM; in assay [3], 28.7 µM; in assay [4], 46 µM; in assay [5] it was 38.8 µM; in [6], 29.4 µM. Besides, the TGI in [7] was found to be 39.2 µM; in [8] it was 36.3 µM; in assay [9] it was 47.2 µM; in assay [10] it was 32.2 µM; in assay [11], 47.5 µM; in assay [12], 36.6 µM. For the same compound, the TGI is 30.1 µM in assay [13]; 41.6 µM in assay [14]; 3.32 µM in [15]; 49.9 µM in [16]; 50.1 µM in [17]; 28.1 µM in assay [18]. Also, the TGI came to 31.7 µM in assay [19] and 29.1 µM in assay [20].
As for `Cc1ccc2nc(CN3CCCC(O)C3)cc(=O)n2c1` (stereo not given), the TGI in [1], in [2], in assay [3], in [4], in [5] and in [6] was more than 100 µM each time. Also, the TGI in [7], in assay [8], in [9], in assay [10], in assay [11] and in [12] was more than 100 µM in each case. Moreover, the TGI in [13], in assay [14], in [15], in assay [16], in [17] and in assay [18] was more than 100 µM throughout. In addition, the TGI in assay [19] and in assay [20] was more than 100 µM each time.
Turning to `CCN(CC)C(=C(C(Cl)=C(Cl)Cl)[N+](=O)[O-])N(CC)CC`, the TGI is more than 100 µM in assay [1]; 91.6 µM in assay [2]; more than 100 µM in assay [3]; more than 100 µM in [4]; more than 100 µM in assay [5]; more than 100 µM in assay [6]. In addition, the TGI in assay [7], in assay [8], in assay [9], in assay [10], in assay [11] and in [12] was more than 100 µM each time. For the same compound, the TGI in assay [13], in assay [14], in assay [15], in [16], in [17] and in assay [18] was more than 100 µM each time. In addition, the TGI in [19] and in [20] was more than 100 µM throughout.
Turning to `COC(=O)C1=C(O)C(C(=O)OC)[C@]2(O)[C@H](C(=O)OC)[C@H]1C[C@@H](c1ccc(F)cc1)[C@H]2C(=O)OC` (stereo not given in full), the TGI in assay [1] was 41 µM; in assay [2] it was 28 µM; in assay [3], more than 100 µM; in assay [4], 53.4 µM; in assay [5], 68.5 µM; in [6], 33.2 µM. Further, the TGI is 37.5 µM in assay [7]; 43.9 µM in assay [8]; 7.24 µM in [9]; more than 100 µM in [10]; 35.5 µM in assay [11]; 41.3 µM in assay [12]. Moreover, the TGI in assay [13] was 77.6 µM; in assay [14], 42.1 µM; in assay [15] it was 29.6 µM; in [16], 67.6 µM; in [17], 47.5 µM; in assay [18], 26.3 µM. Further, the TGI in assay [19] came out at 27.4 µM; in assay [20] it was 73.2 µM.
Take `COC(=O)C(Cc1c[nH]c2ccccc12)N=C1Nc2ccncc2S(=O)(=O)N1c1ccccc1` (stereo not given): the TGI was 35 µM in assay [1]; 40.5 µM in assay [2]; more than 100 µM in [3]; 99.3 µM in assay [4]; more than 100 µM in [5]; 54 µM in assay [6]. For the same compound, the TGI in assay [7] is more than 100 µM; in assay [8], more than 100 µM; in assay [9], 0.727 µM; in [10], more than 100 µM; in [11] it was 99.5 µM; in [12], more than 100 µM. In addition, the TGI in assay [13] is more than 100 µM; in assay [14], 69.3 µM; in assay [15] it was 33.9 µM; in [16] it was more than 100 µM; in assay [17] it was 42.1 µM; in [18] it was more than 100 µM. Further, the TGI is more than 100 µM in assay [19] and 75 µM in assay [20].
As for `OC1(CCc2ccccc2)COC(C(F)(F)F)(C(F)(F)F)C1` (stereo not given), the TGI in assay [1], in assay [2], in assay [3], in [4], in assay [5] and in [6] was more than 100 µM in each case. Further, the TGI in assay [7], in [8], in assay [9], in [10], in [11] and in assay [12] was more than 100 µM each time. Further, the TGI in assay [13], in assay [14], in assay [15], in assay [16], in [17] and in [18] was more than 100 µM throughout. In addition, the TGI in [19] and in assay [20] was more than 100 µM throughout.
As for `O=C1NC(=O)C(Cc2ccccc2)(c2cccnc2)N1` (stereo not given), the TGI in assay [1], in assay [2], in [3], in [4], in [5] and in [6] was more than 100 µM each time. Also, the TGI in [7], in [8], in assay [9], in [10], in assay [11] and in assay [12] was more than 100 µM throughout. Further, the TGI in [13], in assay [14], in assay [15], in assay [16], in assay [17] and in assay [18] was more than 100 µM each time. The TGI in assay [19] and in assay [20] was more than 100 µM in each case.
In the case of `CN1C2CCC1CC(CCOC(c1ccc(F)cc1)c1ccc(F)cc1)C2` (stereo not given), the TGI in assay [1] stood at 29.9 µM; in assay [2], 29.3 µM; in [3], 41.6 µM; in [4], 41.8 µM; in [5], 30.9 µM; in [6], 29.6 µM. Besides, the TGI stood at 36.7 µM in assay [7]; 30.8 µM in [8]; 34.9 µM in assay [9]; 29.7 µM in [10]; 32.4 µM in [11]; 27.7 µM in [12]. The TGI is 31.2 µM in assay [13]; 30.3 µM in assay [14]; 24.1 µM in [15]; 33.5 µM in assay [16]; 38.2 µM in [17]; 38.2 µM in assay [18]. Besides, the TGI in assay [19] amounted to 31.7 µM; in assay [20], 30.4 µM.
